# Test results published in patent publication US8889627B2 (Teva Pharmaceutical Industries, Ltd., priority 2011, dated 2014).
# Key:
# MOG-induced EAE mice = test: Efficacy of laquinimod alone or in combination with fingolimod in MOG-induced EAE; assay type: in vivo, mice (C57BL/6); conditions: for activity according to GMS compared to vehicle control: oral QD; for Duration / Onset / Mortality / GMS value / Incidence: Day 1 to 30; for Mortality: dead or moribund/total mice; for GMS value: group mean clinical score (0-6); for Incidence: sick/total mice
# S1PR5 = S1PR5 (Homo sapiens, UniProt Q9H228); conditions: cited from earlier work
# Sequence of S1PR5 (Q9H228 whole entry, species assumed): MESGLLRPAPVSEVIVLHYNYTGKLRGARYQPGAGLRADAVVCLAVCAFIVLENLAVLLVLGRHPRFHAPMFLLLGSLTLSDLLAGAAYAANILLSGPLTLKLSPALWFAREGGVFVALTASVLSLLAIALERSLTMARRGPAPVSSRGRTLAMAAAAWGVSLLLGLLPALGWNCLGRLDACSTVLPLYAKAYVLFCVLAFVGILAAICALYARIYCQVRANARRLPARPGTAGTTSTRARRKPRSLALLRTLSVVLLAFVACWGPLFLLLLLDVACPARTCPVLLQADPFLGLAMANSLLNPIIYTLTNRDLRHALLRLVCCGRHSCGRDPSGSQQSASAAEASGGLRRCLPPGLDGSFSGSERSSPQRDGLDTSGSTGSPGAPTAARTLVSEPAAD
# S1PR4 = biological target: T1, S1PR4 (Homo sapiens, UniProt O95977); conditions: cited from earlier work
# T1 sequence (O95977 1-384): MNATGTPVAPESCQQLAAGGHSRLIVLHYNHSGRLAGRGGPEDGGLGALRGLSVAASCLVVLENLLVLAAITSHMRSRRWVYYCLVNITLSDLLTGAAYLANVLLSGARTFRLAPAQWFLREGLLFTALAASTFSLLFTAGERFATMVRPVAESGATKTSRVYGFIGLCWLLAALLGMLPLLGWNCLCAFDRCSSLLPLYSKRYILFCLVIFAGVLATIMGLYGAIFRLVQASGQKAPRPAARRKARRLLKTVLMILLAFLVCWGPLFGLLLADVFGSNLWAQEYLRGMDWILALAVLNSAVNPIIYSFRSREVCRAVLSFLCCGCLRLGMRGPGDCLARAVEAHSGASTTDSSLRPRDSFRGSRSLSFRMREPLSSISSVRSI
compound,measurement,setting,value
"CCCCCCCCc1ccc(CCC(N)(CO)CO)cc1 [Fingolimod, 2-amino-2-[2-(4-octylphenyl)ethyl]propane-1,3-diol]",activity according to GMS compared to vehicle control,MOG-induced EAE mice; fingolimod 0.3 mg/kg (sub optimal dose),56.3%
same,effectiveness against EAE (in words),MOG-induced EAE mice; fingolimod 0.3 mg/kg alone,moderately effective
same,Duration,MOG-induced EAE mice; fingolimod 0.3 mg/kg oral QD,15.0 ± 6.7 days
same,Onset,MOG-induced EAE mice; fingolimod 0.3 mg/kg oral QD,16.0 ± 6.7 days
same,Mortality,MOG-induced EAE mice; fingolimod 0.3 mg/kg oral QD,0/15
same,GMS value,MOG-induced EAE mice; fingolimod 0.3 mg/kg oral QD,1.4 ± 0.8
same,Incidence,MOG-induced EAE mice; fingolimod 0.3 mg/kg oral QD,13/15
same,activity according to GMS compared to vehicle control,MOG-induced EAE mice; fingolimod 1 mg/kg (optimal dose),81.3%
same,Duration,MOG-induced EAE mice; fingolimod 1 mg/kg oral QD,7.59 ± 9.1 days
same,Onset,MOG-induced EAE mice; fingolimod 1 mg/kg oral QD,21.7 ± 9.3 days
same,Mortality,MOG-induced EAE mice; fingolimod 1 mg/kg oral QD,0/15
same,GMS value,MOG-induced EAE mice; fingolimod 1 mg/kg oral QD,0.6 ± 0.8
same,Incidence,MOG-induced EAE mice; fingolimod 1 mg/kg oral QD,8/15
CCCCCCCCc1ccc(CCC(N)(CO)COP(=O)(O)O)cc1 (stereo not shown) [Fingolimod-phosphate],binding affinity (in words),S1PR5,high affinity
same,binding affinity (in words),S1PR4,high affinity
CCN(C(=O)c1c(O)c2c(Cl)cccc2n(C)c1=O)c1ccccc1 [Laquinimod],activity according to GMS compared to vehicle control,MOG-induced EAE mice; laquinimod 10 mg/kg (sub optimal dose),53.1%
same,effectiveness against EAE (in words),MOG-induced EAE mice; laquinimod 10 mg/kg alone,moderately effective
same,Duration,MOG-induced EAE mice; laquinimod 10 mg/kg oral QD,14.1 ± 6.4 days
same,Onset,MOG-induced EAE mice; laquinimod 10 mg/kg oral QD,17.1 ± 6.3 days
same,Mortality,MOG-induced EAE mice; laquinimod 10 mg/kg oral QD,0/15
same,GMS value,MOG-induced EAE mice; laquinimod 10 mg/kg oral QD,1.5 ± 0.8
same,Incidence,MOG-induced EAE mice; laquinimod 10 mg/kg oral QD,13/15
same,activity according to GMS compared to vehicle control,MOG-induced EAE mice; laquinimod 25 mg/kg (optimal dose),81.1%
same,Duration,MOG-induced EAE mice; laquinimod 25 mg/kg oral QD,8.1 ± 9.0 days
same,Onset,MOG-induced EAE mice; laquinimod 25 mg/kg oral QD,22.9 ± 9.0 days
same,Mortality,MOG-induced EAE mice; laquinimod 25 mg/kg oral QD,0/15
same,GMS value,MOG-induced EAE mice; laquinimod 25 mg/kg oral QD,0.6 ± 0.8
same,Incidence,MOG-induced EAE mice; laquinimod 25 mg/kg oral QD,7/15
